Assays:
[1] = system: Mouse transplantable tumour Sarcoma 180 cells; assay: Measurement of antitumour activity value (Sarcoma 180 subcutaneously transplanted, oral administration); format: in vivo, male ICR/JCL mice; conditions: once a day for 9 consecutive days, tumour weight on day 12, Sarcoma 180, ICR/JCL mice; for ED50 (dose at which tumour proliferation-inhibitory rate is over 50%): 17280 min
Protocol: Mouse transplantable tumour Sarcoma 180 cells (5×10^6 cells) were transplanted subcutaneously into male ICR/JCL mice (weighing 27-30 g) in the back. The test compounds were dissolved or suspended in a 0.5 weight % aqueous solution of CMC containing Tween 80 at the concentration of 0.1 weight % to afford test preparations. Using 7 animals per group, the test preparations were orally administered to each mouse at the dose of 0.1 ml/10 g mouse body weight once a day for consecutive 9 days from the following day of the day when the tumours were transplanted.
On the twelfth day from the day of tumour-transplantation, the average weight of tumours for each of the test compounds at the respective doses was measured. The weight was compared with the average weight of the tumours of the control group, and the tumour proliferation-inhibitory rates of the test compounds based on that of the control group were estimated at the respective dose.

[2] = in vivo; cited from earlier work
tumour = conditions: cited from earlier work
[3] = in vivo; cited from earlier work; remark: listed apart in the source

SMILES | ED50 (dose at which tumour proliferation-inhibitory rate is over 50%) [1] [mg/kg] | further results
Cc1cc(OP(=O)(OC[C@H]2O[C@@H](n3cc(F)c(=O)[nH]c3=O)C[C@@H]2O)Oc2ccccc2)ccc1Cl (stereo partly drawn) [Ex. 6, 4-chloro-3-methylphenyl phenyl 2'-deoxy-5-fluoro-5'-uridylate] | 6.2 | –
CC(=O)O[C@H]1C[C@H](n2cc(F)c(=O)[nH]c2=O)O[C@@H]1COP(=O)(Oc1ccc(Cl)cc1)Oc1ccc(Cl)cc1 [Ex. 22, di-p-chlorophenyl 3'-acetyl-2'-deoxy-5-fluoro-5'-uridylate] | 1.2 | –
O=c1[nH]c(=O)n([C@H]2C[C@H](O)[C@@H](COP(=O)(Oc3ccc(Cl)c(Cl)c3)Oc3ccc(Cl)c(Cl)c3)O2)cc1F [Ex. 12, Di(3,4-dichlorophenyl) 2'-deoxy-5-fluoro-5'-uridylate] | 2.5 | –
O=c1[nH]c(=O)n([C@H]2C[C@H](O)[C@@H](COP(=O)(Sc3ccc(Cl)cc3)Sc3ccc(Cl)cc3)O2)cc1F [Ex. 26, 2'-deoxy-5-fluorouridine 5'-(S,S-di-p-chlorophenylphosphorodithioate)] | 4.2 | –
O=c1[nH]c(=O)n([C@H]2C[C@H](O)[C@@H](COP(=O)(Oc3ccc4c(c3)OCO4)Oc3ccc4c(c3)OCO4)O2)cc1F [Ex. 13, Di(3,4-methylenedioxyphenyl) 2'-deoxy-5-fluoro-5'-uridylate] | 25.0 | –
O=c1[nH]c(=O)n([C@H]2C[C@H](O)[C@@H](COP(=O)(Oc3ccc(C(F)(F)F)cc3)Oc3ccc(C(F)(F)F)cc3)O2)cc1F [Ex. 19, Di-p-trifluoromethylphenyl 2'-deoxy-5-fluoro-5'-uridylate] | 0.9 | –
O=c1[nH]c(=O)n([C@H]2C[C@H](O)[C@@H](CO)O2)cc1F [FdUrd, 2'-deoxy-5-fluorouridine] | – | ED50 ([1]; Mus musculus, 288 h, read-out: ED50 (dose at which tumour proliferation-inhibitory rate is over 50%)): 59.5 mg/kg; decomposition into 5-fluorouracil (in words) [2]: a large portion thereof is decomposed into 5-fluorouracil; metabolism and excretion (in words) [2]: rapidly metabolized and excreted; tumour proliferation-inhibitory action (in words) (tumour; cytostatic potency test (in vivo)): extremely potent tumour proliferation-inhibitory action; effect as compared with 5-fluorouracil (in words) (tumour; in vivo): can not be found to exhibit any particular superior effects as compared with 5-fluorouracil; toxicity of FdUrd (in words) [3]: the toxicity thereof is strong
O=c1[nH]c(=O)n([C@H]2C[C@H](O)[C@@H](COP(=O)(Oc3ccccc3Cl)Oc3ccccc3Cl)O2)cc1F [Ex. 8, Di-o-chlorophenyl 2'-deoxy-5-fluoro-5'-uridylate] | 10.0 | –
O=C(c1ccccc1)n1c(=O)c(F)cn([C@H]2C[C@H](O)[C@@H](COP(=O)(Oc3ccccc3)Oc3ccccc3)O2)c1=O [Ex. 3, diphenyl 3-benzoyl-2'-deoxy-5-fluoro-5'-uridylate] | 7.0 | –
O=c1[nH]c(=O)n([C@H]2C[C@H](O)[C@@H](COP(=O)(Oc3ccc(Br)cc3)Oc3ccc(Br)cc3)O2)cc1F [Ex. 18, Di-p-bromophenyl 2'-deoxy-5-fluoro-5'-uridylate] | 1.2 | –
N#Cc1ccc(OP(=O)(OC[C@H]2O[C@@H](n3cc(F)c(=O)[nH]c3=O)C[C@@H]2O)Oc2ccc(C#N)cc2)cc1 [Ex. 16, Di-p-cyanophenyl 2'-deoxy-5-fluoro-5'-uridylate] | 6.1 | –
O=c1[nH]c(=O)n([C@H]2C[C@H](O)[C@@H](COP(=O)(Oc3ccc([N+](=O)[O-])cc3)Oc3ccc([N+](=O)[O-])cc3)O2)cc1F [Ex. 24, di-p-nitrophenyl 2'-deoxy-5-fluoro-5'-uridylate] | 5.4 | –
O=c1[nH]c(=O)n([C@H]2C[C@H](O)[C@@H](COP(=O)(Oc3ccc(F)cc3)Oc3ccc(F)cc3)O2)cc1F [Ex. 17, Di-p-fluorophenyl 2'-deoxy-5-fluoro-5'-uridylate] | 1.3 | –
O=c1[nH]c(=O)n([C@H]2C[C@H](O)[C@@H](COP(=O)(Oc3cccc(Cl)c3)Oc3cccc(Cl)c3)O2)cc1F [Ex. 9, Di-m-chlorophenyl 2'-deoxy-5-fluoro-5'-uridylate] | 1.4 | –
CC(C)=CCCC(C)CCOP(=O)(OC[C@H]1O[C@@H](n2cc(F)c(=O)[nH]c2=O)C[C@@H]1O)Oc1ccccc1 (stereo partly drawn) [Ex. 5, citroneryl phenyl 2'-deoxy-5-fluoro-5'-uridylate] | 23.8 | –
O=c1[nH]c(=O)n([C@H]2C[C@H](O)[C@@H](COP(=O)(Oc3cccc(Cl)c3Cl)Oc3cccc(Cl)c3Cl)O2)cc1F [Ex. 10, Di(2,3-dichlorophenyl) 2'-deoxy-5-fluoro-5'-uridylate] | 3.6 | –
O=c1[nH]c(=O)n([C@H]2C[C@H](O)[C@@H](COP(=O)(Oc3ccc(Cl)cc3)Oc3ccc(Cl)cc3)O2)cc1F [Ex. 7, di-p-chlorophenyl 2'-deoxy-5-fluoro-5'-uridylate] | 1.4 | –
O=c1[nH]c(=O)n([C@H]2C[C@H](O)[C@@H](COP(=O)(Oc3ccccc3)Oc3ccccc3)O2)cc1F [Ex. 1, diphenyl 2'-deoxy-5-fluoro-5'-uridylate] | 11.1 | –
O=c1[nH]c(=O)n([C@H]2C[C@H](O)[C@@H](COP(=O)(Oc3ccc(Cl)cc3Cl)Oc3ccc(Cl)cc3Cl)O2)cc1F [Ex. 11, Di(2,4-dichlorophenyl) 2'-deoxy-5-fluoro-5-uridylate] | 1.5 | –

From patent US5032680A (priority 1988, dated 1991)
